Assays:
U251MG cells = test: Mitochondrial stress response, oxygen consumption rate (OCR); format: cell-based, human; conditions: FCCP as inducer of stress
Description: In further experiments, the effect of SBI-0640725 on mitochondrial stress response in U251MG cells was determined by measuring the mitochondrial oxygen consumption rate (OCR). The OCR was measured in real time, both before, and after treating U251 MG cells with increasing concentrations of SBI-0640725. The time of compound addition is indicated in FIG. 15A by the vertical line labeled D. Mitochondrial bioenergetics stress was determined by treating the cells sequentially with 0.125 mg/ml oligomycin (OA; vertical line O), […] carbonyl cyanide-4-(trifluoromethoxy)phenylhydrazone (FCCP; vertical line F) and […] rotenone (vertical line R) while continuing OCR measurement. Oligomycin (OA) generates mitochondrial stress by inhibiting ATP synthase and FCCP uncouples mitochondrial oxidative phosphorylation. The OCR data shown in FIG. 15A is presented in FIG. 15B after normalization using cell protein concentration, and subtracting extra-mitochondrial respiration, as determined by the respiration observed upon addition of rotenone. These experiments tested whether SBI-0640725 could inhibit the ability of mitochondria to compensate for these stressors. […] FCCP dissipates the electrochemical gradient that drives ATP synthesis. Thus, in order to maintain the membrane potential, mitochondria needs to increase the flow of electrons, thereby reflecting an increase in the OCR.

[1] = tested on: Caspase 3/7 activity in MBA-MD-231 cells; test: Cellular Caspase-3/7 luminescence assay; format: cell-based; conditions: MBA-MD-231, 72 hours
Description: (§1) Further, the effect of SBI-0640725 on cellular caspase levels was also quantitated in U251MG, MBA-MD-231 and HepG2 cells. Each cell type was treated with increasing concentrations of SBI-0640725 for 72 hours. Quantification of total cellular Caspase-3 and 7 activity was accomplished using a Caspase-3/7 luminescence assay kit (Promega) according to the manufacturer's recommendations, and analyzed with a POLARstar Omega micro-titer plate reader (BMG). […] Caspase activity is a marker for apoptotic cell death.

[2] = tested on: Caspase 3/7 activity in HepG2 cells; test: Cellular Caspase-3/7 luminescence assay; format: cell-based; conditions: HepG2, 72 hours
Description: as §1

EGFR in U251MG cells = test: Hsp90 client protein stability, EGFR; format: cell-based, human; conditions: 48 hours, increasing concentrations

Q: For `COc1c(C)cnc(CN(CCc2ccc(F)cc2)c2cc(Cl)nc(N)n2)c1C` [SBI-0640725], which “mitochondrial stress response (OCR)” value (U251MG cells) is on record?
A: significantly inhibit the ability of mitochondria to compensate for stress

Q: And the “Caspase 3/7 activity” value [1]?
A: increase in Caspase 3/7 activity

Q: What about the “Caspase 3/7 activity” value [2] of the same compound?
A: increase in Caspase 3/7 activity

Q: And the “level of the client protein EGFR” value (EGFR in U251MG cells)?
A: observed to decrease

From patent US20160311795A1, “PYRIMIDINE DIAMINE DERIVATIVES AS INHIBITORS OF CYTOSOLIC HSP90” (CALASIA PHARMACEUTICALS, INC., priority 2012, published 2016)
